In patent publication EP0155872A1, “Process for reducing the lignin content of plants, and compositions for putting it into use” (priority 1984, dated 1985):
Values joined by “and” are separate entries in the source; they are usually repeats but may differ in a detail not shown here. Identical values can stand only once. Each block holds one compound with its values, some of them ahead of it.

Key:
[1] = target: T1, CAD de peuplier (Populus deltoides, UniProt P31657); experiment: In vitro inhibition of isolated poplar cinnamyl alcohol dehydrogenase (CAD) at 2 mM; assay type: biochemical; details: 2mM, CAD de peuplier; for inhibition at 2000 µM: read-out: Inhibition à 2mM %
T1 construct: CAD de peuplier isolée selon la méthode deSARNI et al,1984; from tissue; host or cells: poplar plant material
T1 sequence (P31657 1-357): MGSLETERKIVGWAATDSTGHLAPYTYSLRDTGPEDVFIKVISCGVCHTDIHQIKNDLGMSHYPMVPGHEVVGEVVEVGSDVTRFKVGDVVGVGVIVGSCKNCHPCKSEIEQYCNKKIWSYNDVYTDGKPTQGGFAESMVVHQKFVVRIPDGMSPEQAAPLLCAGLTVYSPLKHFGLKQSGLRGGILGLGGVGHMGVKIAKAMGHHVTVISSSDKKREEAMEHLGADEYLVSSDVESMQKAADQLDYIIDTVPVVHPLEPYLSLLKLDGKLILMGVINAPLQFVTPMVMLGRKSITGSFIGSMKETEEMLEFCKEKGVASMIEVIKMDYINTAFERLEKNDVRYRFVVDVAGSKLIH
Source text: Après réacidification à pH2 par de l'acide chlorhydrique 3N et centrifugation, le surnageant contenant les acides cinnamiques est séparé du résidu. Les "poudres alcool-benzène" ainsi hydrolysées sont lavées par de l'eau distillée jusqu'à pH neutre et séchées, sous vide dans un dessiccateur en présence de silica.-gel. Les teneurs en lignines sont estimées par la méthode gravimétriques de KLASON (Tappi Standard method Tl2m) modifiée par EFFLAND. Tappi, 60, p 143-144, 1977. On rapporte dans le tableau 1) suivant les résultats obtenus concernant l'effet mesuré in vitro d'inhibiteurs selon l'invention à une concentration de 2mM vis-à-vis de la CAD de peuplier isolée selon la méthode deSARNI et al,1984,EUROP JOURNAL OF BIOCHEMISTRY, 18(1),139, 259-265 On indique également dans ce tableau les résultats obtenus avec des composés portant des substitutions différentes de ceux mis enoe uvre dans l'invention. Les chiffres indiqués entre parenthèses a côté des formules correspondent aux composés identifiés dans les exemples de préparation 2 et 3.
On rapporte dans le tableau 2 suivant les pourcentages d'inhibition de la CAD obtenus en utilisant, à raison de 2 mM, différents composés capables de complexer Zn.

[2] = system: fractions de xylème de peuplier; experiment: Incorporation of cinnamic acid (14C3) into lignins by isolated poplar xylem fractions; assay type: cell-based; details: for Taux de radio-activité incorporé dans les lignines (%) / Radioactivité absorbée (µCi/essai) / Radioactivité incorporée dans les lignines (µCi/essai): 30 h; for Radioactivité absorbée (µCi/essai) / Radioactivité incorporée dans les lignines (µCi/essai): mean of 3; for inhibition at 200 µM / inhibition at 1000 µM: relative to % incorporated in the control = 100
Procedure: Les tissus de xylème isolés (300 mg par essai) sont mis en suspension dans des fioles d'erlenmeyer (25ml), bouchées par du coton cardé contenant : • - du tampon Tris/HCl, O,lM, pH 7,5 (qsp Sml) maintenant le pH entre 7 et 8, • - du Dextran T40 (25 g/1) utilisé comme agent osmotique, ne constituant pas une source de carbone pour la cellule végétale, • - du mercaptoéthanol (O,lmM), antioxydant qui empêche un brunissement très rapide des tissus, • - de l'éther monométhylique de l'éthylène glycol (EMMEG) (50 µl) ou des inhibiteurs solubilisés dans ce polyol (5^0 µ1), • - de l'acide cinnamique (^14C3) (2,5 µCi).
Les fioles sont palcées à 26°C, sous agitation orbitale (agitateur New Brunswick modèle G 10,100 rpm) et sous un éclairement de 4000 lux pendant 30 h. La radioactivité incorporée par les lignines est alors estimée à partir de "poudre alcool-benzène" obtenu par extraction à l'alcool-benzène des fractions tissulaires lyophilisées et réduites en poudre.
Afin de mesurer l'absorption de l'acide cinnamique par les fractions tissulaires et de corriger d'éventuelles différences d'absorption selon les essais, une fraction aliquote du milieu d'incubation (50 µl) est prélevée à différents temps et la radioactivité estimée au compteur à scintillation liquide.
La mesure de la radioactivité libérée sous forme de ^14CO2 après combustion totale des "poudres alcool-benzène" révèle qu'en présence du OHPAS ou du NH2PAS, on observe une baisse de la radioactivité retrouvée dans les lignines. Ainsi, ces inhibiteurs entraînent à la concentration de lmM, une inhibition de 40 à 70% de la synthèse des lignines radioactives. Ces résultats sont rapportés dans le tableau 3 ci-après : […]

[3] = system: plants de maïs; experiment: Cell-wall polysaccharide content of treated maize plants; assay type: in vivo; details: plants âgés de 30 jours; 80 µM
Procedure: (§1) Les différentes études dont les résultats sont rapportés ci-après ont été réalisées à partir de plants de mais âgés de 30 jours et traités par l'OHPAS et le NH2PAS à la concentration de 80 µM.
Le dosage de l'ensemble des polysaccharides pariétaux mais également de la fraction cellulosique n'a révélé aucune différence significative entre les plants témoins et les plants traités.

[4] = system: plants de mais; experiment: Soluble phenolic compounds of treated maize plants; assay type: in vivo; details: plants âgés de 30 jours, 80 µM; for FLAVONOIDES / PHENOLS SIMPLES: mean of 3
Procedure: as §1
Le traitement des plants par les inhibiteurs ne modifie pas les teneurs en ces composés comme le montrent les résultats rapportés dans le tableau 6 ci-après. Cependant, on constate une baisse importante (40% avec l'OHPAS) des quantités de flavonoïdes.

[5] = system: plants de luzerne; experiment: Lignin content of 30-day alfalfa plants; assay type: in vivo; details: plants de luzerne de 30 jours
Source text: 6) Effets des inhibiteurs sur la teneur en lignines de plants de luzerne de 30 jours : • Le protocole est le même que celui décrit pour les plants de mais.
On rapporte dans le tableau 7 ci-après les pourcentages d'inhibition obtenus en fonction de la concentration en produit.

[6] = target: T1, CAD de peuplier; experiment: In vitro inhibition of isolated poplar cinnamyl alcohol dehydrogenase (CAD) at 2 mM; assay type: biochemical; details: mode of action study

SMILES: CC(C)(C)OC(=O)C[S+]([O-])Nc1ccccc1N (centres unmarked) [composé 5, N-(o-Amino phényl)Sulfinamoyl Acétate de tertiobutyle]
Inhibition à 2mM % ([1]; 2000 µM): 80%
inhibition at 2000 µM [1]: 90%
Taux de radio-activité incorporé dans les lignines (%) ([2]; 0,2mM): 32%
Radioactivité absorbée (µCi/essai) ([2]; 0,2mM): 0,80 µCi/essai
Radioactivité incorporée dans les lignines (µCi/essai) ([2]; 0,2mM): 0,26 µCi/essai
inhibition at 200 µM ([2]; 0,2mM): 4%
Taux de radio-activité incorporé dans les lignines (%) ([2]; 1mM): 20%
Radioactivité absorbée (µCi/essai) ([2]; 1mM): 0,80 µCi/essai
Radioactivité incorporée dans les lignines (µCi/essai) ([2]; 1mM): 0,16 µCi/essai
inhibition at 1000 µM ([2]; 1mM): 40%
synthèse de la fraction polysaccharidique de la paroi [3]: n'apparaîssent pas affecter
% PERTE (flavonoïdes) [4]: 48%
% PERTE (phénols simples) [4]: 0%
FLAVONOIDES [4]: 25 ± 14 mg d'acide gallique par g de matériel
PHENOLS SIMPLES [4]: 101 ± 10 mg d'acide gallique par g de matériel
% d'inhibition (teneur en lignines) ([5]; 25 µM): 20%
% d'inhibition (teneur en lignines) ([5]; 50 µM): 17%
réversibilité de l'inhibition de la CAD [6]: faiblement réversible

inhibition at 2000 µM [1]: 90%
synthèse de la fraction polysaccharidique de la paroi [3]: n'apparaîssent pas affecter
réversibilité de l'inhibition de la CAD [6]: faiblement réversible
SMILES: CC(C)(C)OC(=O)C[S+]([O-])Nc1ccccc1O (centres unmarked) [composé 2, N-(o -hydroxy phényl)sulfinamoyl acétate de tertiobutyle]
Taux de radio-activité incorporé dans les lignines (%) ([2]; 0,2mM): 24%
Radioactivité absorbée (µCi/essai) ([2]; 0,2mM): 0,75 µCi/essai
Radioactivité incorporée dans les lignines (µCi/essai) ([2]; 0,2mM): 0,18 µCi/essai
inhibition at 200 µM ([2]; 0,2mM): 17%
Taux de radio-activité incorporé dans les lignines (%) ([2]; 1mM): 10%
Radioactivité absorbée (µCi/essai) ([2]; 1mM): 0,75 µCi/essai
Radioactivité incorporée dans les lignines (µCi/essai) ([2]; 1mM): 0,075 µCi/essai
inhibition at 1000 µM ([2]; 1mM): 70%
% PERTE (phénols simples) [4]: 0%
% PERTE (flavonoïdes) ([4]; listed as OHPAS): 40% and 42%
FLAVONOIDES [4]: 28 ± 11 mg d'acide gallique par g de matériel
PHENOLS SIMPLES [4]: 107 ± 8 mg d'acide gallique par g de matériel
% d'inhibition (teneur en lignines) ([5]; 25 µM): 13%
% d'inhibition (teneur en lignines) ([5]; 50 µM): 31%
